From ChEMBL document CHEMBL1130478, “Mono and bis double ester prodrugs of novel aminomethyl-THF 1-methylcarbapenems” (Bioorg Med Chem Lett, 1997)
Values after ≈ are worked out from the molar mass of the structure shown.

Experiments:
[1] = tested on: Morganella morganii; test: In vitro antibacterial activity against M. morganii(GC 2213) without pre-incubation in mouse serum; assay type: functional
[2] = target: T1, Dipeptidase 1 (Sus scrofa) (UniProt P22412); test: Relative hydrolysis by hog Dehydropeptidase; assay type: functional
T1 sequence (whole entry): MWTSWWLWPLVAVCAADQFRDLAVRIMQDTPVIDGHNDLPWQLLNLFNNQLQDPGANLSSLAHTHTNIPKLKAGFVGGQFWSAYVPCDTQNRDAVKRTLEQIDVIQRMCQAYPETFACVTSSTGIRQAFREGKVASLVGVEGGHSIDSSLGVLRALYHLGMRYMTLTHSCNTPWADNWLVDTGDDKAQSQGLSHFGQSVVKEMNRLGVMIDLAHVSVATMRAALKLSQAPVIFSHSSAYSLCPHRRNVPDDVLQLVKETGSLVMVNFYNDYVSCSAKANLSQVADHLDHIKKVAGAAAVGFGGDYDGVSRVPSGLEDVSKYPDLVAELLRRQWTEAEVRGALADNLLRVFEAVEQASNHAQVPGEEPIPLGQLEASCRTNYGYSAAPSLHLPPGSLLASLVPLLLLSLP

[3] = tested on: Escherichia coli; test: In vitro antibacterial activity expressed as MIC against E. coli(GC 1792) without pre-incubation in mouse serum; assay type: functional
[4] = tested on: Staphylococcus aureus; test: In vitro antibacterial activity against S. aureus(ATCC 29213) without pre-incubation in mouse serum; assay type: functional
[5] = tested on: Enterobacter cloacae; test: In vitro antibacterial activity against E. cloacae(GC 2209) following preincubation in mouse serum; assay type: functional
[6] = tested on: Mus musculus; test: Antibacterial activity against Escherichia coli (311) infection in mice after single subcutaneous dose, activity expressed as ED50; assay type: functional; settings: sc
[7] = tested on: Enterococcus faecalis; test: In vitro antibacterial activity against E. faecalis(GC 842) following pre-incubation in mouse serum; assay type: functional
[8] = tested on: Morganella morganii; test: In vitro antibacterial activity against M. morganii(GC 2213) following pre-incubation in mouse serum; assay type: functional
[9] = tested on: Stenotrophomonas maltophilia; test: In vitro antibacterial activity against X. maltophilia(GC 562) without pre-incubation in mouse serum; assay type: functional
[10] = tested on: Citrobacter freundii; test: In vitro antibacterial activity against C. freundii(GC 2211) following pre-incubation in mouse serum; assay type: functional
[11] = tested on: Stenotrophomonas maltophilia; test: In vitro antibacterial activity against X. maltophilia(GC 562) following pre-incubation in mouse serum; assay type: functional
[12] = tested on: Enterococcus faecium; test: In vitro for antibacterial activity against E. faecium(GC 1182) without pre-incubation in mouse serum; assay type: functional
[13] = tested on: Pseudomonas aeruginosa; test: In vitro antibacterial activity against P. aeruginosa(GC 1544 oprd) following pre-incubation in mouse serum; assay type: functional
[14] = tested on: Staphylococcus aureus; test: In vitro antibacterial activity against S. aureus(GC 2220 MRSA) following pre-incubation in mouse serum; assay type: functional
[15] = tested on: Staphylococcus aureus; test: In vitro antibacterial activity against S aureus(ATCC 29213) following preincubation in mouse serum; assay type: functional
[16] = tested on: Staphylococcus aureus; test: In vitro antibacterial activity against S. aureus(GC 2220 MRSA) without pre-incubation in mouse serum; assay type: functional
[17] = tested on: Escherichia coli; test: In vitro antibacterial activity expressed as MIC against Escherichia coli (ATCC 25922) following pre-incubation in mouse serum; assay type: functional
[18] = tested on: Citrobacter freundii; test: In vitro antibacterial activity against C. freundii(GC 2211) without preincubation in mouse serum; assay type: functional
[19] = tested on: Escherichia coli; test: In vitro antibacterial activity expressed as MIC against E. coli(GC 2205) without pre-incubation in mouse serum; assay type: functional
[20] = tested on: Acinetobacter calcoaceticus; test: In vitro antibacterial activity against Acinetobacter calcoaceticus (GC 756) without preincubation in mouse serum; assay type: functional
[21] = tested on: Acinetobacter calcoaceticus; test: In vitro antibacterial activity against Acinetobacter calcoaceticus (GC 756) following preincubation in mouse serum; assay type: functional
[22] = tested on: Enterobacter cloacae; test: In vitro antibacterial activity against E. cloacae(GC 2209) without pre-incubation in mouse serum; assay type: functional
[23] = tested on: Escherichia coli; test: In vitro antibacterial activity expressed as MIC against Escherichia coli (ATCC 25922) without pre-incubation in mouse serum; assay type: functional
[24] = tested on: Pseudomonas aeruginosa; test: In vitro antibacterial activity against Pseudomonas aeruginosa (ATCC 27853) following pre-incubation in mouse serum; assay type: functional
[25] = tested on: Pseudomonas aeruginosa; test: In vitro antibacterial activity against Pseudomonas aeruginosa (ATCC 27853) without pre-incubation in mouse serum; assay type: functional
[26] = tested on: Pseudomonas aeruginosa; test: In vitro antibacterial activity against P. aeruginosa(GC 1544 oprd) without pre-incubation in mouse serum; assay type: functional
[27] = tested on: Enterococcus faecium; test: In vitro for antibacterial activity against E. faecium(GC 1182) following pre-incubation in mouse serum; assay type: functional
[28] = tested on: Enterococcus faecalis; test: In vitro antibacterial activity against E. faecalis(GC 842) without pre-incubation in mouse serum; assay type: functional
[29] = tested on: Mus musculus; test: Antibacterial activity against Escherichia coli (311) infection in mice after single oral dose, activity expressed as ED50; assay type: functional
[30] = tested on: Escherichia coli; test: In vitro antibacterial activity expressed as MIC against E. coli(GC 2205) following pre-incubation in mouse serum; assay type: functional
[31] = tested on: Escherichia coli; test: In vitro antibacterial activity expressed as MIC against E. coli(GC 1792) following pre-incubation in mouse serum; assay type: functional
[32] = tested on: Stenotrophomonas maltophilia; test: In vitro antibacterial activity against X. maltophilia(GC 562) without pre-incubation in mouse serum
[33] = tested on: Morganella morganii; test: In vitro antibacterial activity against M. morganii(GC 2213) without preincubation in mouse serum
[34] = tested on: Enterococcus faecalis; test: In vitro antibacterial activity against E. faecalis(GC 842) without pre-incubation in mouse serum

Row | Compound | MIC [1] | Relative hydrolysis [2] | MIC [3] | MIC [4] | MIC [5] | ED50 [6] | MIC [7] | MIC [8] | MIC [9] | MIC [10] | MIC [12] | MIC [16] | MIC [18] | MIC [19] | MIC [20] | MIC [22] | MIC [23] | MIC [25] | MIC [26] | ED50 [29] | other results
1 | CCOC(=O)OCOC(=O)C1=C(S[C@@H]2CCO[C@@H]2CNC(=O)OCOC(=O)C(C)C)[C@H](C)C2[C@@H]([C@@H](C)O)C(=O)N12 (some centres undefined) | 128 µg/mL (≈ 217 µM) | 11 | 16 µg/mL (≈ 27.2 µM) | 4 µg/mL (≈ 6.8 µM) | 0.12 µg/mL (≈ 0.204 µM) | 0.4 mg/kg | 2 µg/mL (≈ 3.4 µM) | 1 µg/mL (≈ 1.7 µM) | > 128 µg/mL | 0.25 µg/mL (≈ 0.425 µM) | > 128 µg/mL | 128 µg/mL (≈ 217 µM) | > 128 µg/mL | 20 µg/mL (≈ 34 µM) | > 128 µg/mL | > 128 µg/mL | 32 µg/mL (≈ 54.4 µM) | > 128 µg/mL | > 128 µg/mL | 0.56 mg/kg | MIC [11]: > 128 µg/mL; MIC [13]: 32 µg/mL (≈ 54.4 µM); MIC [14]: 4 µg/mL (≈ 6.8 µM); MIC [15]: 0.06 µg/mL (≈ 0.102 µM); MIC [17]: < 0.06 µg/mL; MIC [21]: 4 µg/mL (≈ 6.8 µM); MIC [24]: 16 µg/mL (≈ 27.2 µM); MIC [27]: 128 µg/mL (≈ 217 µM); MIC [28]: 64 µg/mL (≈ 109 µM); MIC [30]: 0.06 µg/mL (≈ 0.102 µM); MIC [31]: 0.06 µg/mL (≈ 0.102 µM)
2 | CCOC(=O)OCOC(=O)C1=C(S[C@@H]2CCO[C@@H]2CNC(=O)OC(C)OC(=O)C(C)(C)C)[C@H](C)C2[C@@H]([C@@H](C)O)C(=O)N12 (some centres undefined) | > 128 µg/mL | 19 | > 128 µg/mL | 4 µg/mL (≈ 6.49 µM) | 0.12 µg/mL (≈ 0.195 µM) | 0.46 mg/kg | 2 µg/mL (≈ 3.24 µM) | 2 µg/mL (≈ 3.24 µM) | > 128 µg/mL | 0.5 µg/mL (≈ 0.811 µM) | > 128 µg/mL | 64 µg/mL (≈ 104 µM) | > 128 µg/mL | 1 µg/mL (≈ 1.62 µM) | > 128 µg/mL | > 128 µg/mL | 128 µg/mL (≈ 208 µM) | > 128 µg/mL | > 128 µg/mL | 0.42 mg/kg | MIC [11]: > 128 µg/mL; MIC [13]: 64 µg/mL (≈ 104 µM); MIC [14]: 4 µg/mL (≈ 6.49 µM); MIC [15]: 0.06 µg/mL (≈ 0.0973 µM); MIC [17]: 0.06 µg/mL (≈ 0.0973 µM); MIC [21]: 8 µg/mL (≈ 13 µM); MIC [24]: 32 µg/mL (≈ 51.9 µM); MIC [27]: 64 µg/mL (≈ 104 µM); MIC [28]: 32 µg/mL (≈ 51.9 µM); MIC [30]: 0.06 µg/mL (≈ 0.0973 µM); MIC [31]: 0.06 µg/mL (≈ 0.0973 µM)
3 | C[C@@H](O)[C@H]1C(=O)N2C(C(=O)O)=C(S[C@@H]3CCO[C@@H]3CN)[C@H](C)[C@H]12 | – | 8.5 | < 0.06 µg/mL | < 0.06 µg/mL | – | 0.34 mg/kg | – | – | – | – | 64 µg/mL (≈ 187 µM) | 1 µg/mL (≈ 2.92 µM) | < 0.06 µg/mL | < 0.06 µg/mL | 2 µg/mL (≈ 5.84 µM) | < 0.06 µg/mL | < 0.06 µg/mL | 8 µg/mL (≈ 23.4 µM) | 16 µg/mL (≈ 46.7 µM) | 3.8 mg/kg | MIC [32]: > 128 µg/mL; MIC [33]: 0.5 µg/mL (≈ 1.46 µM); MIC [34]: 0.5 µg/mL (≈ 1.46 µM)
